Test systems include A498 renal; CCRF-CEM leukemia; DU-145 prostate; EKVX NSCLC; K-562 leukemia; MCF7 breast; MDA-MB-435; MDA-N; MOLT-4 leukemia; NCI-H522 lung; SN12C renal; SNB-75 CNS.
Holding throughout (assay): growth of human tumour cells (NCI), 48 h

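Briefly, cells in 96-well plates were exposed to five compound concentrations for 48 h, and endpoints were estimated by linear interpolation. The concentration for full growth arrest is given as TGI.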

TGI data for 19 compounds are collected here from PubChem BioAssay (NCI).

Turning to `COc1cc2c(cc1OC)C(=O)N(c1ccc(O)cc1)C2=O`, the TGI in the experiment with A498 renal, with CCRF-CEM leukemia, in the experiment on DU-145 prostate, in the experiment on EKVX NSCLC, in the experiment with K-562 leukemia and in the experiment on MCF7 breast was > 100 µM throughout. In addition, the TGI in the experiment on MDA-MB-435, in the experiment on MDA-N, in the experiment on MOLT-4 leukemia, with NCI-H522 lung and in the experiment on SN12C renal was > 100 µM each time.
On to `CC(C)(C)OC(=O)NC1CC2(C=C(Br)C(=O)C(Br)=C2)OC1=O` (configuration not stated), for which the TGI with A498 renal is 47.4 µM; in the experiment on DU-145 prostate, 26.4 µM; in the experiment with EKVX NSCLC, 27.5 µM; in the experiment with K-562 leukemia, 13.5 µM; in the experiment on MCF7 breast, 31.6 µM; in the experiment with MDA-MB-435, 22.1 µM. Further, the TGI with MDA-N came to 15.3 µM; with MOLT-4 leukemia, 2.59 µM; in the experiment with NCI-H522 lung, 3.92 µM; with SN12C renal, 18.5 µM; with SNB-75 CNS, 36.7 µM.
Regarding `CN1C/C(=C\c2cccs2)C(O)/C(=C/c2cccs2)C1` (configuration not stated), the TGI in the experiment on A498 renal is > 100 µM; in the experiment on CCRF-CEM leukemia, 52.7 µM; in the experiment with DU-145 prostate it was > 100 µM; with EKVX NSCLC, > 100 µM; with K-562 leukemia, > 100 µM; in the experiment with MCF7 breast it was > 100 µM. The TGI in the experiment on MDA-MB-435 was > 100 µM; in the experiment with MDA-N, > 100 µM; in the experiment with MOLT-4 leukemia, 69.6 µM; with NCI-H522 lung it was > 100 µM; with SN12C renal, > 100 µM.
For `CC1(C)OC2[C@@H](CO[C@@]3([C@@H](O)CCO)OC(C)(C)O[C@@H]23)O1` (some centres not stated), the TGI with CCRF-CEM leukemia, with DU-145 prostate, in the experiment with EKVX NSCLC, in the experiment on K-562 leukemia, with MCF7 breast and in the experiment with MDA-MB-435 was > 100 µM throughout. Moreover, the TGI with MDA-N, in the experiment with MOLT-4 leukemia, with NCI-H522 lung, with SN12C renal and in the experiment with SNB-75 CNS was > 100 µM in each case.
In the case of `C=C1C(=O)O[C@H]2C[C@@]3(COC(C)=O)C=COC=C(COC(=O)C(C)C)C3CC12` (some centres not stated), the TGI in the experiment on CCRF-CEM leukemia was 63.8 µM; with DU-145 prostate it was > 100 µM; with EKVX NSCLC it was > 100 µM; with K-562 leukemia, > 100 µM; in the experiment with MCF7 breast, > 100 µM; in the experiment on MDA-MB-435 it was > 100 µM. For the same compound, the TGI is > 100 µM with MDA-N; > 100 µM in the experiment with MOLT-4 leukemia; > 100 µM in the experiment on NCI-H522 lung; > 100 µM in the experiment with SN12C renal; 67.5 µM in the experiment on SNB-75 CNS.
For the compound `O=C(O)CCC(=O)c1ccc2c(c1)C(C(=O)O)CC2` (configuration not stated), the TGI in the experiment with A498 renal, with DU-145 prostate, in the experiment on EKVX NSCLC, with K-562 leukemia, in the experiment on MCF7 breast and in the experiment with MDA-MB-435 was > 100 µM throughout. Moreover, the TGI with MDA-N, in the experiment on MOLT-4 leukemia, with NCI-H522 lung and with SN12C renal was > 100 µM throughout.
As to `O=C(NCCN1CCOCC1)c1cn2c(ccc3sc4ccccc4c(=O)c32)n1`, the TGI in the experiment with A498 renal, with DU-145 prostate, in the experiment with EKVX NSCLC, in the experiment on K-562 leukemia, with MCF7 breast and in the experiment on MDA-MB-435 was > 100 µM in each case. The TGI in the experiment with MDA-N was > 100 µM; in the experiment on MOLT-4 leukemia, > 100 µM; in the experiment on NCI-H522 lung, > 100 µM; in the experiment on SN12C renal, > 100 µM; with SNB-75 CNS, 59.4 µM.
Turning to `COc1cc(C(C)O)c(S(=O)(=O)CC(C)O)nn1` (configuration not stated), the TGI with A498 renal, in the experiment on CCRF-CEM leukemia, with DU-145 prostate, in the experiment with EKVX NSCLC, in the experiment on K-562 leukemia and in the experiment on MCF7 breast was > 100 µM throughout. The TGI in the experiment with MDA-MB-435, with MDA-N, in the experiment on MOLT-4 leukemia, with NCI-H522 lung and in the experiment with SN12C renal was > 100 µM in each case.
With `CCP(=O)(CC)C(Cl)Cl`, the TGI with CCRF-CEM leukemia, in the experiment on DU-145 prostate, with K-562 leukemia, in the experiment with MCF7 breast, in the experiment on MDA-MB-435 and in the experiment with MDA-N was > 100 µM in each case. Besides, the TGI with MOLT-4 leukemia, in the experiment with NCI-H522 lung, in the experiment on SN12C renal and in the experiment with SNB-75 CNS was > 100 µM in each case.
Regarding `O=C(O)Cc1ccc(Nc2nc3cc(C(F)(F)F)ccc3nc2C(=O)O)cc1`, the TGI with A498 renal, in the experiment with DU-145 prostate, in the experiment on EKVX NSCLC, with MCF7 breast, with MDA-MB-435 and with MDA-N was > 100 µM throughout. The TGI in the experiment with MOLT-4 leukemia, in the experiment with NCI-H522 lung, in the experiment with SN12C renal and with SNB-75 CNS was > 100 µM in each case.
Consider `O=[N+]([O-])c1ccc2c(c1)N([O-])C1(CCCCC1)[N+]2=O`, for which the TGI in the experiment on CCRF-CEM leukemia was > 100 µM; with DU-145 prostate, 33.9 µM; with EKVX NSCLC it was 29.6 µM; in the experiment on K-562 leukemia it was > 100 µM; in the experiment with MCF7 breast, 36.6 µM; in the experiment with MDA-MB-435 it was 30.9 µM. The TGI stood at 31.8 µM in the experiment on MDA-N, 51.9 µM in the experiment on MOLT-4 leukemia, 35.1 µM with SN12C renal and 33.2 µM in the experiment with SNB-75 CNS.
For the compound `Cc1ccc(SC2C(=O)C3CC(OCc4ccccc4)C2(C)C3(C)C)cc1` (configuration not stated), the TGI with A498 renal, in the experiment with CCRF-CEM leukemia, in the experiment with DU-145 prostate, with EKVX NSCLC, in the experiment with K-562 leukemia and in the experiment with MCF7 breast was > 100 µM each time. Further, the TGI with MDA-MB-435, in the experiment on MDA-N, in the experiment on MOLT-4 leukemia and with SN12C renal was > 100 µM in each case.
As to `O=C1CC(c2ccccc2)C2(C(=O)NC(=S)NC2=O)C(c2ccccc2)C1` (configuration not stated), the TGI with CCRF-CEM leukemia, in the experiment with DU-145 prostate, with EKVX NSCLC, in the experiment with K-562 leukemia, with MCF7 breast and in the experiment on MDA-MB-435 was > 75 µM throughout. Moreover, the TGI in the experiment with MDA-N, in the experiment with MOLT-4 leukemia, with NCI-H522 lung, with SN12C renal and in the experiment on SNB-75 CNS was > 75 µM throughout.
On to `CN1CN(c2ccccc2)C2(CCN(CC(C)(c3ccc(F)cc3)C3OCCCO3)CC2)C1=O` (configuration not stated), for which the TGI with CCRF-CEM leukemia is 45.9 µM; with DU-145 prostate it was > 100 µM; with EKVX NSCLC, 54.8 µM; with K-562 leukemia, 38.6 µM; in the experiment on MCF7 breast, 30.2 µM; in the experiment with MDA-MB-435, 24.5 µM. The TGI was 31.6 µM in the experiment on MDA-N; 33.2 µM in the experiment with MOLT-4 leukemia; 33.6 µM with NCI-H522 lung; 34.6 µM in the experiment on SN12C renal; 46.6 µM in the experiment with SNB-75 CNS.
Take `CCOC(=O)c1nnsc1N/N=C\c1ccc([N+](=O)[O-])cc1`: the TGI in the experiment on CCRF-CEM leukemia, in the experiment on DU-145 prostate, with EKVX NSCLC, in the experiment on K-562 leukemia, in the experiment on MCF7 breast and in the experiment with MDA-MB-435 was > 100 µM throughout. For the same compound, the TGI in the experiment with MDA-N, in the experiment with MOLT-4 leukemia, with NCI-H522 lung, in the experiment on SN12C renal and in the experiment on SNB-75 CNS was > 100 µM each time.
Take `Cc1ccccc1OC(C)C(=O)NN1C(=O)CSC1c1ccc(Cl)cc1` (configuration not stated): the TGI is 72.3 µM in the experiment on A498 renal; > 100 µM with DU-145 prostate; > 100 µM in the experiment with EKVX NSCLC; > 77.1 µM in the experiment on K-562 leukemia; > 100 µM in the experiment with MCF7 breast; > 100 µM with MDA-MB-435. Further, the TGI is > 100 µM with MDA-N; > 59.7 µM with MOLT-4 leukemia; > 29.4 µM with NCI-H522 lung; 35.3 µM with SN12C renal; > 100 µM with SNB-75 CNS.
For `c1cc2c(s1)-c1sccc1C21OCCO1`, the TGI in the experiment with CCRF-CEM leukemia, in the experiment with DU-145 prostate, in the experiment on EKVX NSCLC, in the experiment with K-562 leukemia, in the experiment on MCF7 breast and in the experiment with MDA-MB-435 was > 100 µM each time. The TGI in the experiment with MDA-N, with MOLT-4 leukemia, in the experiment on NCI-H522 lung and with SN12C renal was > 100 µM throughout.
With `CC[C@@]1(O)C(=O)OCc2c1cc1n(c2=O)Cc2c-1nc1ccccc1c2/C=N\NC(=O)C1CCCN1` (some centres not stated), the TGI with A498 renal is 2.58 µM; in the experiment on CCRF-CEM leukemia, > 100 µM; in the experiment on DU-145 prostate, > 100 µM; with EKVX NSCLC, > 100 µM; with K-562 leukemia, > 100 µM; in the experiment on MCF7 breast, 18.4 µM. The TGI was > 100 µM with MDA-MB-435, > 100 µM in the experiment with MDA-N, > 48.2 µM in the experiment with SN12C renal and 1.8 µM in the experiment on SNB-75 CNS.
Regarding `Cc1nc(CC#N)n[nH]1`, the TGI in the experiment on CCRF-CEM leukemia, in the experiment on DU-145 prostate, in the experiment on EKVX NSCLC, in the experiment with K-562 leukemia, in the experiment on MCF7 breast and with MDA-MB-435 was > 100 µM throughout. Also, the TGI in the experiment on MDA-N, with MOLT-4 leukemia, in the experiment with NCI-H522 lung, in the experiment with SN12C renal and with SNB-75 CNS was > 100 µM in each case.
